Tests used:
tomato leaf disks = test: Extracellular ROS production, luminol chemiluminescence; assay type: cell-based, Solanum lycopersicum; settings: 100 μM, monitored over 720 min
Text: Bacterial rhamnolipids, such as compound 3, trigger the plant immune system, which can ultimately lead to plant protection against diseases caused by fungal and bacterial pathogens.[23] As ananatoside A (1) and ananatoside B (2) share structural similarities with rhamnolipid 3 and because they have been isolated from P. ananatis cultures, an emerging plant pathogen causing important agricultural damage worldwide,[81] we wanted to investigate whether these bacterial glycolipids, along with our unprecedented series of synthetic rhamnolactones, could be perceived by the plant immune system. We relied on measuring the extracellular content of reactive oxygen species (ROS) produced by tomato plants (Solanum lycopersicum) following treatment with the synthetic compounds, as an early and important marker of plant immunity.[20,22,82] Tomato leaves were challenged with synthetic glycolipids 1–6 at concentrations of 100 μM and the production of ROS was monitored over a 720 min time frame (Fig. 5).
Fig. 5 Extracellular reactive oxygen species (ROS) production following treatment of tomato leaf disks with ananatoside A (1), ananatoside B (2), RhaC10C10 (3), and related macrodilactone-containing rhamnolipids (4–6). Production of ROS was measured in tomato leaf disks following treatment at 100 μM with synthetic glycolipids (1–6). MeOH (0.5%) was used as a control. ROS production was measured using the chemiluminescence of luminol and photon counts were expressed as relative luminescence units (RLUs). Data are mean ± SEM (n = 6). Experiments were independently realized three times with similar results. […]
Plant Material and Growth Conditions. Tomato plants (Solanum lycopersicum L var. Ailsa craig, Scotland) were grown on soil in growth chamber with white fluorescent light [200 μmol•(m−2 s−1)], under 16 h/8 h light/dark regime, 60% relative humidity , and a temperature of 24 /20 °C during four weeks prior treatment. Arabidopsis thaliana plants (ecotype Col -0) were grown on soil in growth chambers with white fluorescent light (150 μmol m−2 s−1), under 12 h/12 h light/dark regime, 60% relative humidity, and a temperature of 20/20 °C during six weeks prior treatment.
Reactive Oxygen Species (ROS) Production. ROS assays were performed on four-week old tomato plants or six-week old Arabidopsis plants. Briefly, tomato leaf disks of 6 mm diameter or Arabidopsis petiole sections of 5 mm long were cut and placed in a 96-well plate (Optiplate TM-96 white, PerkinElmer) containing 150 µL of distilled H2O and then incubated at rt for 24 h to reduce the wounding response.11 The elicitation solution containing 0.2 µg•mL−1 luminol (A4685-5 g, Sigma), […] (P6782, Sigma) and the tested glycolipids (1, 2, 3, 4, 5α, 5β, 6α or 6β) at 100 μM was prepared. Methanol (0.5%) was used as negative control. Prior elicitation, the incubating distilled H2O was carefully removed from each well, avoiding any tissue damage or desiccation. Then, the elicitation solution (150 µL) was quickly added to each well containing a leaf disk or a petiole. Luminescence (relative light units, RLU) was measured every 4

Arabidopsis petiole = test: as above; assay type: cell-based, Arabidopsis thaliana; settings: 100 μM
Description: The only exception to this general trend was compound 5β. […]
ananatoside A (1) ananatoside B (2)
Figure S8. Extracellular ROS production following treatment of Arabidopsis petiole with […]
ananatoside A (1) or ananatoside B (2). Production of reactive oxygen species (ROS) was measured […]
in Arabidopsis petiole following treatment at 100 µM with ananatoside A (1) and ananatoside B […]
(2). Methanol (0.5%) was used as a control. ROS production was measured using the […]
chemiluminescence of luminol and photon counts were expressed as relative luminescence units […]
(RLUs). Data are mean ± SEM (n = 6). Experiments were realized three times with similar results.
(also on this page, place not known: S 8. ( 1) Luminescence (RLU) Luminescence (RLU)) […]
ranging between 200 µM and 1.56 µM. Triton X-100 was used as a positive hemolysis control.
The plate was then incubated at 37 °C with agitation at 150 rpm for 1 h and centrifuged at 1500 × g for 5 min. The supernatant was transferred in an empty plate and absorbance was measured at 540 nm using a Cytation3 microplate reader (Biotek). HC50 was calculated in comparison with the positive control. The experiment was performed in triplicate and repeated three times.
Plant Material and Growth Conditions. […]
Reactive Oxygen Species (ROS) Production. […] Luminescence (relative light units, RLU) was measured every 4

[1] = Dynamic light scattering (Zetasizer), hydrodynamic diameter of micelles; assay type: physicochemical; settings: pH 7.0; concentration 80 μM
Text: In parallel to these experiments, we took advantage of dynamic light scattering (DLS) to evaluate the hydrodynamic diameter of biosurfactant micelles formed at concentrations above the CMC (Table 4).[79] DLS considers the intensity of light scattered by spherical particles, which prevents its application for highly polydisperse and non-spherical colloidal systems. […] Once again, due to its hydrophobicity, ananatoside A (1) was too polydisperse for conducting a proper distribution analysis, showing a Z-average value above 800 nm, which meant that the particles were aggregated in water at the tested concentration. Similar results were obtained for ananatoside A (1) when the DLS experiments were conducted in DMSO as the solvent.

Row | Z-Average (hydrodynamic diameter of micelles) [1] | Compound | Extracellular ROS production (tomato leaf disks) | Extracellular ROS production (perception by plants) (Arabidopsis petiole)
1 | – | CCCCCCC[C@@H]1CC(=O)OC[C@H]2O[C@@H](O[C@H](CCCCCCC)CC(=O)O1)[C@H](O)[C@@H](O)[C@@H]2O [Compound 1, ananatoside A] | not | perceived by plants
2 | 99.0 nm | CCCCCCC[C@H](CC(=O)O)OC(=O)C[C@@H](CCCCCCC)O[C@@H]1O[C@H](CO)[C@@H](O)[C@H](O)[C@H]1O [Compound 2, ananatoside B] | less strong in amplitude, a similar pattern of ROS production | perceived by plants

Reference: PMC8171317, “Total synthesis, isolation, surfactant properties, and biological evaluation of ananatosides and related macrodilactone-containing rhamnolipids” (Chemical Science, 2021)
